How the values were obtained:
Experiment in all cases: relative viability (nuclei count vs DMSO), 5 days (fraction); higher = more cells survive
[1] = compound: C1=CC2=C(C=C(C(=C2N=C1)O)N=NC3=CC4=C(C=C3)C=C(C=C4)S(=O)(=O)O)S(=O)(=O)O + C[C@]1(O)C[C@@H](c2nc(-c3ccc4ccc(-c5ccccc5)nc4c3)c3c(N)nccn32)C1 [Linsitinib] (partner 1 µM)
Outline: (§1)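 Lung cancer cell lines in 1536-well plates were dosed by pin tool the day after seeding, either with one drug alone or with a fixed anchor-drug dose plus five library-drug doses (not always all listed) in √10 steps. After 5 days, cells were fixed and their nuclei stained in one step (final 0.05% Triton X-100, 1% formaldehyde, 1 ug/ml Hoechst), then counted on 4× images. Relative viability is the nuclei count in treated wells divided by that in vehicle wells. Values are medians of duplicate plates.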

AT-7519 + Palbociclib = compound: O=C(NC1CCNCC1)c1n[nH]cc1NC(=O)c1c(Cl)cccc1Cl [AT-7519] + CC(=O)c1c(C)c2cnc(Nc3ccc(N4CCNCC4)cn3)nc2n(C2CCCC2)c1=O [Palbociclib] (partner 0.5 µM)
Outline: as §1

AT-7519 + Decitabine = compound: O=C(NC1CCNCC1)c1n[nH]cc1NC(=O)c1c(Cl)cccc1Cl [AT-7519] + Nc1ncn([C@H]2C[C@H](O)[C@@H](CO)O2)c(=O)n1 [Decitabine] (partner 2 µM)
Outline: as §1

[2] = compound: C1=CC2=C(C=C(C(=C2N=C1)O)N=NC3=CC4=C(C=C3)C=C(C=C4)S(=O)(=O)O)S(=O)(=O)O + C[C@@H](Oc1cc(-c2cnn(C3CCNCC3)c2)cnc1N)c1c(Cl)ccc(F)c1Cl [Crizotinib] (partner 1 µM)
Outline: as §1

Cell Line | relative viability ([1]; first compound 0.08 µM) | relative viability ([1]; first compound 0.253 µM) | relative viability ([1]; first compound 0.8 µM) | relative viability ([1]; first compound 2.53 µM) | relative viability ([1]; first compound 8 µM) | relative viability (AT-7519 + Palbociclib; first compound 0.01 µM) | relative viability (AT-7519 + Palbociclib; first compound 0.03162 µM) | relative viability (AT-7519 + Palbociclib; first compound 0.3162 µM) | relative viability (AT-7519 + Palbociclib; first compound 1 µM) | relative viability (AT-7519 + Decitabine; first compound 0.01 µM) | relative viability (AT-7519 + Decitabine; first compound 0.03162 µM) | relative viability (AT-7519 + Decitabine; first compound 0.3162 µM) | relative viability (AT-7519 + Decitabine; first compound 1 µM) | relative viability ([2]; first compound 0.08 µM) | relative viability ([2]; first compound 0.253 µM) | relative viability ([2]; first compound 0.8 µM) | relative viability ([2]; first compound 2.53 µM) | relative viability ([2]; first compound 8 µM)
201T | 1.05 | 1.01 | 1 | 1.05 | 1.07 | 0.339 | 0.34 | 0.32 | 0.363 | 0.915 | 0.853 | 0.831 | 0.862 | 1.1 | 1.07 | 1.02 | 1.09 | 0.995
A549 | 0.7 | 0.515 | 0.617 | 0.645 | 0.576 |  |  |  |  | 0.233 | 0.22 | 0.28 | 0.251 | 0.909 | 0.738 | 0.754 | 0.694 | 0.754
A-427 | 1.18 | 1.07 | 1.08 | 1.07 | 1.11 | 0.551 | 0.491 | 0.467 | 0.327 | 0.539 | 0.508 | 0.604 | 0.53 | 1.05 | 0.814 | 0.978 | 1 | 0.876
ABC-1 | 0.8 | 0.632 | 0.86 | 0.688 | 0.738 | 0.778 | 0.702 | 0.549 | 0.442 | 1.22 | 1.08 | 0.859 | 0.926 | 1.07 | 1.33 | 1.01 | 1.27 | 1.23
BEN | 1.11 | 0.887 | 0.799 | 0.94 | 0.827 | 0.5 | 0.515 | 0.455 | 0.461 | 0.754 | 0.663 | 0.771 | 0.744 | 1.14 | 0.872 | 0.792 | 0.925 | 0.813
CAL-12T | 0.938 | 0.753 | 0.751 | 0.773 | 0.889 | 0.396 | 0.471 | 0.172 | 0.151 |  |  |  |  | 0.69 | 0.528 | 0.711 | 0.932 | 0.717
COR-L23 | 1.01 | 0.927 | 0.925 | 0.87 | 0.753 | 0.306 | 0.28 | 0.265 | 0.157 | 0.455 | 0.465 | 0.388 | 0.197 | 0.653 | 0.63 | 0.572 | 0.671 | 0.502
COR-L 105 | 0.931 | 0.939 | 1.04 | 0.985 | 1.01 | 0.382 | 0.416 | 0.371 | 0.354 | 0.687 | 0.682 | 0.608 | 0.351 | 0.999 | 0.71 | 0.797 | 0.881 | 0.717
Calu-6 | 1.08 | 0.976 | 0.911 | 0.926 | 0.969 |  |  |  |  |  |  |  |  | 0.96 | 0.761 | 0.763 | 0.817 | 0.821
ChaGo-K-1 |  |  |  |  |  | 0.952 | 0.938 | 0.922 | 0.869 | 0.534 | 0.526 | 0.519 | 0.461 | 1.12 | 1.16 | 1.13 | 1.21 | 1.12
EBC-1 | 1.04 | 0.878 | 0.796 | 0.945 | 0.915 |  |  |  |  |  |  |  |  | 0.231 | 0.197 | 0.197 | 0.183 | 0.162
EKVX | 1.15 | 0.956 | 0.891 | 1.01 | 0.927 | 0.498 | 0.369 | 0.299 | 0.375 | 0.331 | 0.303 | 0.57 | 0.463 | 0.997 | 0.959 | 1 | 0.894 | 0.915
EMC-BAC-2 | 0.912 | 0.821 | 0.825 | 0.823 | 0.8 | 0.504 | 0.506 | 0.468 | 0.513 | 0.93 | 0.924 | 0.935 | 0.692 | 0.777 | 0.751 | 0.704 | 0.806 | 0.757
EPLC-272H | 1.29 | 1.07 | 1.13 | 1.31 | 1.37 | 0.346 | 0.324 | 0.302 | 0.307 | 0.367 | 0.322 | 0.387 | 0.298 | 1.14 | 0.883 | 0.977 | 0.978 | 0.964
H3255 | 0.95 | 0.899 | 0.948 | 1.04 | 0.911 | 0.376 | 0.309 | 0.328 | 0.308 | 0.721 | 0.58 | 0.573 | 0.57 | 0.842 | 1.02 | 0.834 | 0.669 | 0.874
HARA | 1.01 | 1.08 | 0.937 | 1.06 | 0.957 | 0.194 |  | 0.273 | 0.233 | 0.526 | 0.531 | 0.819 | 0.441 | 1.1 | 1.01 | 1.03 | 1.02 | 1.04
HCC-15 | 0.978 | 0.874 | 0.788 | 0.897 | 0.878 | 0.779 | 0.717 | 0.618 | 0.537 | 0.59 | 0.567 | 0.498 | 0.441 | 0.957 | 0.851 | 0.806 | 0.824 | 0.77
HCC-44 | 0.708 | 0.66 | 0.664 | 0.702 | 0.698 | 0.975 | 0.961 | 0.965 | 0.901 | 0.928 | 0.95 | 0.978 | 1.04 | 0.935 | 0.767 | 0.807 | 0.819 | 0.859
HCC-78 | 0.614 | 0.543 | 0.496 | 0.469 | 0.399 | 0.423 | 0.431 | 0.611 | 0.479 | 0.688 | 0.704 | 0.696 | 0.626 | 0.388 | 0.336 | 0.328 | 0.337 | 0.203
